Like-named read-outs stand apart in the source and are kept apart here.
System: SARS-CoV-2, USA-WA1/2020 strain
Type: cell-based
Settings: tested conc. 50%; for LRV (log reduction value): compared to the virus control; for Virus titer: lower limit of detection 0.67

For `CCO` [Ethanol], the “LRV (log reduction value)” value (incubation time 15 seconds) was >4.0, the Virus titer (incubation time 15 seconds) was <0.67 Log10 CCID50 of virus per 0.1 mL and the “LRV (log reduction value)” value (incubation time 30 seconds) was >3.83. The Virus titer (incubation time 30 seconds) was <0.67 Log10 CCID50 of virus per 0.1 mL, the “LRV (log reduction value)” value (incubation time 60 seconds) was >4.0 and the Virus titer (incubation time 60 seconds) was <0.67 Log10 CCID50 of virus per 0.1 mL. The “LRV (log reduction value)” value (incubation time 5 minutes) was >3.83 and the Virus titer (incubation time 5 minutes) was <0.67 Log10 CCID50 of virus per 0.1 mL.

Reference: patent US20220387479A1, “NOVEL POVIDONE-IODINE PHARMACEUTICAL PREPARATION AND USES THEREOF” (priority 2021, published 2022)
